Test results as given in patent publication US7968716B2, “Caspase inhibitors and uses thereof” (Vertex Pharmaceuticals Incorporated, priority 2000, dated 2011).

Legend:
[1] = target: T1, recombinant, purified human Caspase-3 (Homo sapiens, UniProt P42574); experiment: Caspase-3 enzyme assay, fluorogenic substrate cleavage; format: biochemical; conditions: second order rate constant of enzyme inactivation; substrate Acetyl-Asp-Glu-Val-Asp-amino-4-methylcoumarin
T1 sequence (P42574 29-175 limits assumed): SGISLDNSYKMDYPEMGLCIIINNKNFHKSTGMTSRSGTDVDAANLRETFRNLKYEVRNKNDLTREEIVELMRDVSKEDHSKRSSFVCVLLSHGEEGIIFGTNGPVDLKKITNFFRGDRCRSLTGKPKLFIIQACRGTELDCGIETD
T1 sequence (P42574 176-277 limits assumed): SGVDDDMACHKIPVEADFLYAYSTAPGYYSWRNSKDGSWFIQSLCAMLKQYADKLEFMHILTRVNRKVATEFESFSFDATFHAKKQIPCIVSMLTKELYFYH
Description: (§1) The assays for caspase inhibition are based on the cleavage of a fluorogenic substrate by recombinant, purified human Caspases -1, -3, -7 or -8. The assays are run in essentially the same way as those reported by Garcia-Calvo et al. (J. Biol. Chem. 273 (1998), 32608-32613), using a substrate specific for each enzyme. The substrate for Caspase-1 is Acetyl-Tyr-Val-Ala-Asp-amino-4-methylcoumarin. The substrate for Caspases -3, -7 and -8 is Acetyl-Asp-Glu-Val-Asp-amino-4-methylcoumarin.
(§2) The observed rate of enzyme inactivation at a particular inhibitor concentration, kobs, is computed by direct fits of the data to the equation derived by Thornberry et al. (Biochemistry 33 (1994), 3943-3939) using a nonlinear least-squares analysis computer program (PRISM 2.0; GraphPad software). To obtain the second order rate constant, kinact, kobs values are plotted against their respective inhibitor concentrations and kinact values are subsequently calculated by computerized linear regression.

[2] = target: T2, recombinant, purified human Caspase-1 (Homo sapiens, UniProt P29466); experiment: Caspase-1 enzyme assay, fluorogenic substrate cleavage; format: biochemical; conditions: second order rate constant of enzyme inactivation; substrate Acetyl-Tyr-Val-Ala-Asp-amino-4-methylcoumarin
T2 sequence (P29466 120-297 limits assumed): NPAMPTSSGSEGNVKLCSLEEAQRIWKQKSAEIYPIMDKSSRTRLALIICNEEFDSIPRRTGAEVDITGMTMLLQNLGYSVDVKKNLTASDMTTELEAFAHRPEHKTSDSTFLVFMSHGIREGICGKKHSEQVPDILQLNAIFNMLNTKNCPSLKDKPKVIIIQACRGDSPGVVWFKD
T2 sequence (P29466 317-404 limits assumed): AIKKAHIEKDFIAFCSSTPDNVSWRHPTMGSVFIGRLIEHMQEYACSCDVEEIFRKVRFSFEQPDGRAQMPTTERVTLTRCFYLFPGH
Description: as §1, §2

[3] = target: T3, recombinant, purified human Caspase-7 (Homo sapiens, UniProt P55210); experiment: Caspase-7 enzyme assay, fluorogenic substrate cleavage; format: biochemical; conditions: second order rate constant of enzyme inactivation; substrate Acetyl-Asp-Glu-Val-Asp-amino-4-methylcoumarin
T3 sequence (P55210 24-198 limits assumed): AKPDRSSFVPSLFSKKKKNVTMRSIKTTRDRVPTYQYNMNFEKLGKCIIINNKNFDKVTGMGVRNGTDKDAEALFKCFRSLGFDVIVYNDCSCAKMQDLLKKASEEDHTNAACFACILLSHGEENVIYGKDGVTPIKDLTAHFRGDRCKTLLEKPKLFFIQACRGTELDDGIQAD
T3 sequence (P55210 207-303 limits assumed): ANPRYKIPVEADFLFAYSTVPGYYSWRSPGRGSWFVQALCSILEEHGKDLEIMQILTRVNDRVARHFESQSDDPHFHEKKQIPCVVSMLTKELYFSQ
Description: as §1, §2

[4] = tested on: IL-1β secretion from peripheral blood mononuclear cells (PBMC); experiment: Inhibition of IL-1β secretion from PBMC; format: cell-based; conditions: human PBMC, LPS 50 ng/ml, 16-18 h, mature IL-1β in supernatant
Description: Processing of pre-IL-1β by caspase-1 can be measured in cell culture using a variety of cell sources. Human PBMC obtained from healthy donors provides a mixed population of lymphocyte and mononuclear cells that produce a spectrum of interleukins and cytokines in response to many classes of physiological stimulators.
The test compound is dissolved in Dimethyl Sulphoxide (DMSO, Sigma #D-2650) to give a 100 mM stock solution. This is diluted in complete medium consisting of RPMI containing 10% heat inactivated FCS (Gibco BRL #10099-141), 2 mM L-Glutamine (Sigma, #G-7513), 100 U penicillin and 100 μg/ml streptomycin (Sigma #P-7539). The final concentration range of test compound is from 100 μM down to 6 nM over eight dilution steps. The highest concentration of test compound is equivalent to 0.1% DMSO in the assay.
Human PBMC are isolated from Buffy Coats obtained from the blood bank using centrifugation on Ficoll-Paque leukocyte separation medium (Amersham, #17-1440-02) and the cellular assay is performed in a sterile 96 well flat-bottomed plate (Nunc). Each well contains 100 μl of the cell suspension, 1×10^5 cells, 50 μl of compound dilutions and 50 μl of LPS (Sigma #L-3012) at 50 ng/ml final concentration. Controls consist of cells +/− LPS stimulation and a serial dilution of DMSO diluted in the same way as compound. […]

[5] = target: recombinant, purified human Caspase-8 (Homo sapiens, UniProt Q14790); experiment: Caspase-8 enzyme assay, fluorogenic substrate cleavage; format: biochemical; conditions: second order rate constant of enzyme inactivation; substrate Acetyl-Asp-Glu-Val-Asp-amino-4-methylcoumarin
recombinant, purified human Caspase-8, sequence (Q14790 217-374 limits assumed): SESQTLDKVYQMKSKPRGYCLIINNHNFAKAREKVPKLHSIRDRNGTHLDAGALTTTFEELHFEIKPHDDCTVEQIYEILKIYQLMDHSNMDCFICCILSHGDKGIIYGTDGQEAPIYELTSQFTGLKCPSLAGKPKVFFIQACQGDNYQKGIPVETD
recombinant, purified human Caspase-8, sequence (Q14790 385-479 limits assumed): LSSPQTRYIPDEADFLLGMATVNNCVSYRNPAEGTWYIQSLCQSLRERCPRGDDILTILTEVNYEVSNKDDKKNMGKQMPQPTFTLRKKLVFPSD
Description: as §1, §2

Jurkat E6.1 cells = experiment: Anti-Fas induced apoptosis assay; format: cell-based; conditions: Homo sapiens, anti-Fas antibody CH-11 10 ng/ml, 16-18 hrs, DNA fragmentation
Description: Cellular apoptosis may be induced by the binding of Fas ligand (FasL) to its receptor, CD95 (Fas). CD95 is one of a family of related receptors, known as death receptors, which can trigger apoptosis in cells via activation of the caspase enzyme cascade. The process is initiated by the binding of the adapter molecule FADD/MORT-1 to the cytoplasmic domain of the CD-95 receptor-ligand complex. Caspase-8 then binds FADD and becomes activated, initiating a cascade of events that involve the activation of downstream caspases and subsequent cellular apoptosis. […]
Jurkat E6.1 cells are cultured in complete medium consisting of RPMI-1640 (Sigma No)+10% foetal calf serum (Gibco BRL No. 10099-141)+2 mM L-glutamine (Sigma No. G-7513). […] The cells are counted and the density adjusted to 2×10^6 cells/ml with complete medium. […]
Apoptosis of the cells is measured by the quantitation of DNA fragmentation using a ‘Cell Death Detection Assay’ from Boehringer-Mannheim, No. 1544 675. […] OD405 nm is measured 20 minutes after addition of the final substrate in a SPECTRAmax Plus plate reader (Molecular Devices). OD405 nm is plotted versus compound concentration and the IC50 values for the compounds are calculated using the curve-fitting program SOFTmax Pro (Molecular Devices) using the four parameter fit option.

SMILES: O=C(O)CC(NC(=O)[C@@H]1CCc2nc3ccccc3c(=O)n21)C(=O)CF (stereo partly drawn) [Example 1, [3S/R(1S)]-3-(2,3-Dihydro-1H-9-oxo-pyrrolo[2,1-b]quinazolin-1-carboxamido)-5-fluoro-4-oxo-pentanoic acid]
- Kinact, Caspase-3 Activity [1]: 160500 M⁻¹ s⁻¹

SMILES: O=C(O)CC(NC(=O)[C@@H]1CCCc2nc3ccccc3c(=O)n21)C(=O)CF (stereo partly drawn) [Example 2, [3S/R(9S)]-5-Fluoro-4-oxo-3-(11-oxo-6,7,8,9-tetrahydro-11H-pyrido[2,1-b]quinazolin-9-carboxamido)-pentanoic acid]
- Kinact, Caspase-1 Activity [2]: 455000 M⁻¹ s⁻¹

SMILES: O=C(O)CC(NC(=O)[C@@H]1CCc2cc3ccccc3c(=O)n21)C(=O)CF (stereo partly drawn) [Example 3, [3S/R(3S)]-3-(2,3-Dihydro-1H-5-oxo-pyrrolo[1,2-b]isoquinolin-3-carboxamido)-5-fluoro-4-oxo-pentanoic acid]
- Kinact, Caspase-7 Activity [3]: 229000 M⁻¹ s⁻¹

SMILES: O=C(O)CC(NC(=O)[C@@H]1CCCc2cc3ccccc3c(=O)n21)C(=O)CF (stereo partly drawn) [Example 4, [3S/R(4S)]-5-Fluoro-4-oxo-3-(6-oxo-1,2,3,4-tetrahydro-6H-benzo[b]quinolizin-4-carboxamido)-pentanoic acid]
- IC50 [4]: 569 nM

SMILES: O=C(O)CC(NC(=O)[C@@H]1CCCn2c(=O)c3ccccc3c(=O)n21)C(=O)CF (stereo partly drawn) [Example 5, [3S/R(1S)]-3-(6,11-Dioxo-1,2,3,4-tetrahydro-pyridazino[1,2-b]phthalazin-1-carboxamido)-5-fluoro-4-oxo-pentanoic acid]
- Caspase-8 Kinact [5]: 82000 M⁻¹ s⁻¹

SMILES: O=C(O)CC(NC(=O)[C@@H]1CCCn2c(=O)c3nccnc3c(=O)n21)C(=O)CF (stereo partly drawn) [Example 6, [3S/R(5S)]-(9,10-Dioxo-5,6,7,8,9,10-hexahydro-1,4,8a,10a-tetraazaanthracene-5-carboxamido)-5-fluoro-4-oxo-3-pentanoic acid]
- IC50 (Jurkat E6.1 cells): 168 nM
